Several values for one entry are separate records, joined by “and”; a condition that tells them apart may be missing. Equal values may be shown once. Entries after “also recorded” stand apart in the source; their conditions may differ. Read-outs that look alike come from different tables or passages of the source.
Experiments:
[1] = Beagle dog PK study 1 (IV and PO, propylene glycol-based formulation); type: in vivo; conditions: for concentration at 0.25 h / concentration at 0.5 h / concentration at 1 h / concentration at 2 h / concentration at 4 h / concentration at 8 h / concentration at 24 h: beagle, dog, plasma, po, 5 mg/kg
Experimental: The purpose of this study was to examine the pharmacokinetics of Example 101 in beagle dogs. […] An oral PK study was also undertaken in Lewis rats—see Experimental Method C.
Body weight was recoded prior to dosing, and detailed clinical observations were made prior to dosing and throughout the study, as needed.
Subsequently, 17.320 mL Vitamin E TPGS was added, and the solution was vortexed and sonicated. Then, 51.960 mL water was added, and solution was then heated. […] Subsequently, 39.894 mL Vitamin E TPGS was added, and the solution was vortexed and sonicated. Then, 119.682 mL water was added, and the solution was heated.
Blood samples (˜0.3 mL) were collected according to a schedule (detailed below) by venipuncture of peripheral veins except for the dosing vein, and EDTA-K2 was used as anticoagulant. Within 30 minutes of collection, the samples were centrifuged at approximately 2000× g for 10 minutes at 4° C. to obtain blood plasma. The plasma samples were immediately divided into two aliquots (˜75 μL each), transferred to a cryogenic vial, and stored in a freezer at −75±15° C. prior to analysis.
Blood samples were collected at 0.25, 0.5, 1, 2, 4, 8, and 24 h following the initial dosing (0 h).
The experiments were conducted on a Shimadzu DGU-20A5R and AB API 5500+LC/MS/MS instrument with an Agilent Poroshell EC-C18 4 μm (50×2.1 mm) column. A gradient of 95% water (0.1% formic acid)/95% acetonitrile (0.1% formic acid) was used as the mobile phase. The sample injection volume was 1 μL, and the flow rate was 0.6 mL/min. The gathered data were used for pharmacokinetic calculations using T½, C0, AUClast, AUCinf, MRTinf, CI, Vss, and Number of Points for Regression as parameters.

[2] = tested on: UUO renal fibrosis in rats; test: Unilateral Urethral Obstruction (UUO) rat renal fibrosis model: body weight, clinical observations, nephropathy scores; type: in vivo; parameters: Glomerulosclerosis clinical score / Interstitial nephritis clinical score / Collagen fiber deposition clinical score / Nephropathy clinical score: scale not given here; conditions: for Body weight: individual animals ID 1-8; for Clinical Observation: — = no finding, cells wrap: soft/stool, Anal/dirty
Text: Unilateral Urethral Obstruction (UUO) is a complex model of renal fibrosis (RF) disease. RF is a common outcome in progressive chronic kidney diseases, characterized by excessive formation of internal scar tissue. Surgical obstruction of urine flow can be used to trigger this disease in rodents. The UUO model allows for evaluation of potential drugs as treatment for RF.
Experimental groups for the study are outlined in Table 10. […] Briefly, animals were anesthetized using a Zoletil/Xylazine mixture (20:1, v:v) for a final dose of 25 mg/kg. The operation area was disinfected with 75% alcohol before shaving. Rats in UUO group were exposed left ureter through a small incision on the left side of the abdomen and ligated with 3-0 silk at two locations about 0.5 cm below the renal hilum. The ureters of sham rats in Group 1 were manipulated but not ligated.
Starting on Day 0, animals in group 2 were administered daily doses of the vehicle for 14 days.
(§1) Clinical signs for all animals were monitored and recorded daily. Blind clinical nephropathy scores were conducted for all animals in the study. Glomerulosclerosis, interstitial nephritis, collagen fiber deposition, nephropathy were each assessed for all experimental rats, and a total clinical score was determined for each rat. The scoring system represented the degree or percentage of lesions in the whole kidney. Clinical score assessments were performed on Day 14.
Starting on Day 0, animals in group 2 were administered daily doses of the vehicle for 14 days. […] A design of the UUO study is depicted in FIG. 9B.
as §1, with “Blind” for “Clinical signs for all animals were monitored and recorded daily. Blind”, “deposition, and” for “deposition,”

[3] = PK study 1, PO 5 mg/kg, Test Animal 1, read-out: Plasma concentration
[4] = PK study 1, PO 5 mg/kg, Test Animal 2, read-out: Plasma concentration
[5] = PK study 1, PO 5 mg/kg, Test Animal 3, read-out: Plasma concentration
[6] = PK study 1, PO 5 mg/kg, read-out: Average plasma concentration, Mean
[7] = UUO rats, individual animals No. 1-8

With `CNC(=O)c1[nH]c(C(=O)NC2CCC2)cc1O[C@@H](C)c1ccccc1` [Example 101, N^5-cyclobutyl-N^2-methyl-3-(1-phenylethoxy)-1H-pyrrole-2,5-dicarboxamide] the “AUClast/D, Mean” value ([1]; PK study 1, IV 1 mg/kg) was 1883 (ng · h/mL)/(mg/kg), the “AUC—% Extrap_obs, Mean” value ([1]; PK study 1, IV 1 mg/kg) was 0.73% and the “C0, Mean” value ([1]; PK study 1, IV 1 mg/kg) was 1512 ng/mL. For the same compound, the “Cl_obs, Mean” value ([1]; PK study 1, IV 1 mg/kg) was 8.84 mL/min/kg, the “Vss_obs, Mean” value ([1]; PK study 1, IV 1 mg/kg) was 0.733 L/kg and the Vss_obs ([1]; PK study 1, IV 1 mg/kg, Test Animal 1) was 0.734 L/kg. The Vss_obs ([1]; PK study 1, IV 1 mg/kg, Test Animal 2) was 0.747 L/kg, the Vss_obs ([1]; PK study 1, IV 1 mg/kg, Test Animal 3) was 0.719 L/kg and the “AUClast/D, Mean” value ([1]; PK study 1, PO 5 mg/kg) was 830 (ng · h/mL)/(mg/kg). For the same compound, the “AUC—% Extrap_obs, Mean” value ([1]; PK study 1, PO 5 mg/kg) was 0.531%, the “F, Mean” value ([1]; PK study 1, PO 5 mg/kg) was 44.0% and the F ([1]; PK study 1, PO 5 mg/kg, Test Animal 1) was 48.0%. The AUClast/D ([1]; PK study 1, PO 5 mg/kg, Test Animal 3) was 1000 (ng · h/mL)/(mg/kg), the “clinical observations after intravenous administration” value ([1]; beagle dogs, PK study 1, group 1 (IV), 20% propylene glycol/20% Vitamin E TPGS/60% water, individual animals) was “Vomitus with solid food and soft feces; also recorded: twitching of hindlimbs; also recorded: Slight twitching and lacrimation” and the “clinical observations after oral administration” value ([1]; beagle dogs, PK study 1, group 2 (PO), 20% propylene glycol/20% Vitamin E TPGS/60% water) was “Loose feces”. For the same compound, the “time post-administration at which plasma concentrations began to steadily decrease” value ([1]; beagle dogs, PK study 1, oral administration) was “approximately 1 h”, the “tolerability in dog PK studies” value ([1]; beagle dogs, oral and intravenous) was “well tolerated” and the concentration at 0.25 h [1, 3] was 173 ng/mL. For the same compound, the concentration at 0.25 h [1, 4] was 775 ng/mL, the concentration at 0.25 h [1, 5] was 309 ng/mL and the concentration at 0.25 h [1, 6] was 419 ng/mL. For the same compound, the concentration at 0.5 h [1, 3] was 1480 ng/mL, the concentration at 0.5 h [1, 4] was 1550 ng/mL and the concentration at 0.5 h [1, 5] was 1320 ng/mL. For the same compound, the concentration at 0.5 h [1, 6] was 1450 ng/mL, the concentration at 1 h [1, 3] was 2220 ng/mL and the concentration at 1 h [1, 4] was 1180 ng/mL. For the same compound, the concentration at 1 h [1, 5] was 2240 ng/mL, the concentration at 1 h [1, 6] was 1880 ng/mL and the concentration at 2 h [1, 3] was 1130 ng/mL. The concentration at 2 h [1, 4] was 621 ng/mL, the concentration at 2 h [1, 5] was 1310 ng/mL and the concentration at 2 h [1, 6] was 1020 ng/mL. For the same compound, the concentration at 4 h [1, 3] was 142 ng/mL, the concentration at 4 h [1, 4] was 103 ng/mL and the concentration at 4 h [1, 5] was 254 ng/mL. For the same compound, the concentration at 4 h [1, 6] was 166 ng/mL, the concentration at 8 h [1, 3] was 9.51 ng/mL and the concentration at 8 h [1, 4] was 14.8 ng/mL. The concentration at 8 h [1, 5] was 9.52 ng/mL, the concentration at 8 h [1, 6] was 11.3 ng/mL and the concentration at 24 h [1, 3] was 4.58 ng/mL. The concentration at 24 h [1, 6] was 1.53 ng/mL, the “clinical symptoms associated with UUO (overall conclusion)” value ([2]; 30 mg/kg) was “ameliorates clinical symptoms associated with UUO” and the Body weight ([2]; UUO rats, 30 mg/kg, Day 5, 30 mg/kg) was 310 g. For the same compound, the Body weight ([2]; UUO rats, 30 mg/kg, Day 7, 30 mg/kg) was 270 g, the Body weight ([2]; UUO rats, 30 mg/kg, Day 8, 30 mg/kg) was 260 g and 290 g and the Body weight ([2]; UUO rats, 30 mg/kg, Day 10, 30 mg/kg) was 330 g (2×) and 320 g. For the same compound, the Body weight ([2]; UUO rats, 30 mg/kg, Day 11, 30 mg/kg) was 300 g and 330 g, the Body weight ([2]; UUO rats, 30 mg/kg, Day 12, 30 mg/kg) was 260 g and 310 g and 300 g and 340 g and the “Collagen fiber deposition clinical score” value [2, 7] was 2 (2×) and 1 (6×). The Glomerulosclerosis clinical score [2, 7] was 0, the “Interstitial nephritis clinical score” value [2, 7] was 3 (5×) and 2 (3×) and the Nephropathy clinical score [2, 7] was 2 (2×) and 1 (6×). The “Clinical Observation” value ([2]; UUO rats, individual animals No. 1-8, Day 3) was “diarrhea”, the “Clinical Observation” value ([2]; UUO rats, individual animals No. 1-8, Day 5) was “Anal” and the “Clinical Observation” value ([2]; UUO rats, individual animals No. 1-8, Day 6) was “Anal”. For the same compound, the “Clinical Observation” value ([2]; UUO rats, individual animals No. 1-8, Day 7) was “Anal”, the “Clinical Observation” value ([2]; UUO rats, individual animals No. 1-8, Day 8) was “soft” and the “Clinical Observation” value ([2]; UUO rats, individual animals No. 1-8, Day 9) was “soft”. The “Clinical Observation” value ([2]; UUO rats, individual animals No. 1-8, Day 10) was “soft”, the “Clinical Observation” value ([2]; UUO rats, individual animals No. 1-8, Day 13) was “soft” and the “Clinical Observation” value ([2]; UUO rats, individual animals No. 1-8, Day 14) was “Anal (2×) and soft”. For the same compound, the “interstitial nephritis in representative pathology staining” value ([2]; UUO rats, 30 mg/kg (FIG. 13B)) was “mild interstitial nephritis”, the animals exhibiting diarrhea ([2]; UUO rats, 30 mg/kg, 14 days) was “One animal” and the “animals exhibiting dirty anuses” value ([2]; UUO rats, 30 mg/kg, 14 days) was “Three animals”. The “animals exhibiting soft stools” value ([2]; UUO rats, 30 mg/kg, 14 days) was “Four UUO rats”, the “body weight over the 14-day study” value ([2]; UUO rats, 30 mg/kg, BID at 0 and 8 hours, 14 days (group 3)) was “slight weight loss over the first seven days of the study, and then gained weight over the remaining seven days” and the “collagen fiber deposition score relative to UUO + vehicle” value ([2]; UUO rats, 30 mg/kg, Day 14) was “reduced”. The “interstitial nephritis score relative to UUO + vehicle” value ([2]; UUO rats, 30 mg/kg, Day 14) was “reduced”, the “nephropathy score relative to UUO + vehicle” value ([2]; UUO rats, 30 mg/kg, Day 14) was “reduced” and the “total clinical scores relative to UUO + vehicle” value ([2]; UUO rats, 30 mg/kg, Day 14) was “reduced”.

Source: patent US20260000642A1 (Tay Therapeutics Limited, priority 2022, published 2026)
